Paper PMC6838683, “Discovery of Human Signaling Systems: Pairing Peptides to G Protein-Coupled Receptors” (Cell, 2019)
Like-named read-outs stand apart in the source and are kept apart here. Positions of bridges follow the written chain, without caps; N, C: chain ends. Residues, ends and D or L forms follow the SMILES beside them.

Experiments:
GPR68 [1] = assay: β-arrestin recruitment (Tango); assay type: cell-based, human
Procedure: The peptide library was additionally screened against 120 GPCR targets in parallel, including all available orphan receptors and 27 known class A peptide receptors using the Tango assay platform ([Kroeze et al., 2015]). Briefly, HTLA cells (a HEK293 cell line stably expressing a tTA-dependent luciferase reporter and a β-arrestin2-TEV fusion gene) were plated 10,000 cells/well in poly-L-lysine–coated clear-bottom white 384-well plates in DMEM supplemented with 10% FBS, 100 U/ml penicillin and 100 μg/ml streptomycin, 2 μg/ml puromycin and 100 μg/ml hygromycin B. 24 hr later, cells were transfected with Tango GPCR constructs using the calcium phosphate method ([Jordan et al., 1996]). The next day, culture medium was changed to DMEM + 1% dFBS and 10 μM peptides were added for overnight stimulation. Bright-Glo solution (Promega) was incubated for 15–20 min at room temperature, and luminescence was counted using a Trilux luminescence counter (Wallac).
For subsequent peptide validation experiments using Tango assays, HTLA cells were transiently transfected in 10 cm dishes with the receptor of interest using polyethylenimine (PEI) ([Longo et al., 2013]). […] Assays were performed as described above, with luminescence measured using an EnSpire 2300 Multimode plate reader (PerkinElmer). Luminescence counts were exported into Excel and were analyzed using GraphPad Prism 7.

GPR68 [2] = molecular target: GPR68 (Homo sapiens, UniProt Q15743); assay: GloSensor cAMP assay (Gs), allosteric operational model fitting; assay type: cell-based; parameters: expressed in transfected cells; host or cells: HEK293T, transient (PEI), co-transfected with GloSensor cAMP plasmid
GPR68 (Homo sapiens, UniProt Q15743), sequence (Q15743 whole entry): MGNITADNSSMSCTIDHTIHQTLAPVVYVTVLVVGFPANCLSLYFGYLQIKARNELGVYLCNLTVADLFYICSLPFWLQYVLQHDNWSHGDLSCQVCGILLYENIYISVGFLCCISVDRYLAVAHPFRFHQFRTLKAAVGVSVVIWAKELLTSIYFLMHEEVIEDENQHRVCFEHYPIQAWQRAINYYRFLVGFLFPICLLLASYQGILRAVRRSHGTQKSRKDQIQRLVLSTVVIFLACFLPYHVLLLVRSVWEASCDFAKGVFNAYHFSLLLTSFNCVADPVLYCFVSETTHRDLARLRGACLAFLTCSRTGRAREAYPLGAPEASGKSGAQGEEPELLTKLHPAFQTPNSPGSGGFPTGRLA
Procedure: GPR68-mediated cAMP signaling was measured using GloSensor cAMP assays as published previously ([Huang et al., 2015], [Yu et al., 2019]) with modifications as indicated below. Calcium- and magnesium-free HBSS was supplemented with different organic buffer reagents for different pH solutions, 20 mM 2-(N-morpholino)ethanesulfonic acid (MES, Alfa Aesar) for pH 6.00 – 6.70, 20 mM 4-(2-hydroxyethyl)-1-piperazineethanesulfonic acid (HEPES, Fisher) for pH 6.80 – 8.20, and 20 mM (tris(hydroxymethyl)methylamino)propanesulfonic acid (TAPS) for pH 8.30 – 8.60. The phosphodiesterase (PDE) inhibitor Ro 20-1724 (10 μM final, Cayman Chemical) was included in pH buffers to eliminate potential effect of PDE […]. HEK293T cells were transfected with a modified polyethylenimine (PEI, Polysciences) transfection method ([Longo et al., 2013]). For a 15-cm dish of HEK293T cells with 25 mL growth medium, 8 μg receptor DNA and 8 μg GloSensor DNA (Promega) were mixed in 1 mL of Opti-MEM medium followed by addition of 80 μL PEI reagents. The mixture was added to cells after 20 min incubation at room temperature. Overnight transfected cells were plated in poly-L-lysine (Sigma) coated 384-well white clear bottom plates (Greiner Bio-One, #781098) using DMEM (Corning) + 1% dialyzed FBS (Omega Scientific) for at least 6 h (up to 24 h). Cells were removed of medium before receiving 20 μL/well of 3.5 mM luciferin (Goldbio) prepared in assay buffer (HBSS, 20 mM TAPS, pH 8.40, 10 μM Ro 20-1724) for 1 h at 37°C. Luciferin loading solutions were removed and premixed drug solutions at desired pH conditions were added to cells (25 μL/well). Luminescence was measured 25-30 min after drug application. Results were normalized (basal and maximum responses in the absence of modulator were set to be 0 and 100%) and pooled for analysis using GraphPad Prism.
All of the other parameters, including allosteric affinity cooperativity (α), allosteric modulator binding affinity KB, orthosteric agonist (protons) efficacy τA, system maximal response, and slope factor n were all globally shared for all datasets for each modulator. […] We therefore used an allosteric index, log(αβ/KB) ([Kenakin, 2017a]), which contains both allosteric binding affinity and cooperativity, to quantify the overall allosteric activity.

[3] = GPR68, pH 7.4, tested as PAM, data from resynthesized peptide, mean, SEM and n

Row | Structure (SMILES) | Comment on response, Tango (fold over basal); Emax and pEC50 n.d. (GPR68 [1]) | Emax, cAMP (fold over basal, pH 7.4) (GPR68 [2]; [3]) | EC50 (GPR68 [2]; GPR68, pH 7.4, tested as PAM, data from resynthesized peptide, mean, SEM and n, read-out: pEC50, cAMP (fold over basal, pH 7.4) (converted)) | EC50 (GPR68 [2])
1 | CC[C@H](C)[C@H](NC(=O)[C@H](CCCNC(=N)N)NC(=O)[C@H](C)NC(=O)CNC(=O)[C@H](CCCCN)NC(=O)[C@H](CCCNC(=N)N)NC(=O)[C@@H](NC(=O)[C@H](C)NC(=O)[C@@H]1CSSC[C@H](NC(=O)[C@H](CCSC)NC(=O)[C@@H]2CCCN2C(=O)[C@@H](NC(=O)[C@H](CCC(N)=O)NC(=O)CNC(=O)[C@@H](N)Cc2ccc(O)cc2)C(C)C)C(=O)N[C@@H](CC(=O)O)C(=O)N[C@@H](C)C(=O)NCC(=O)N[C@@H](CCC(=O)O)C(=O)N[C@@H](CCC(N)=O)C(=O)N1)C(C)C)C(N)=O [CART(42-89)_(9-28)] (H-YGQVPMCDAGEQCAVRKGARI-NH2; disulfide 7-13; N-terminus assumed) | No response | 25.2 fold over basal | 4.57 µM | 
2 | CC(C)C[C@H](NC(=O)[C@@H]1CCCN1C(=O)[C@H](Cc1ccccc1)NC(=O)[C@H](C)NC(=O)[C@H](CCC(=O)O)NC(=O)[C@H](C)NC(=O)[C@H](CO)NC(=O)[C@H](CCC(=O)O)NC(=O)[C@H](CC(N)=O)NC(=O)[C@H](CCC(=O)O)NC(=O)[C@H](C)NC(=O)[C@@H](NC(=O)[C@H](CC(N)=O)NC(=O)[C@@H]1CCCN1C(=O)[C@H](Cc1ccc(O)cc1)NC(=O)[C@@H](NC(=O)[C@H](CCCCN)NC(=O)[C@@H](NC(=O)[C@@H]1CCCN1C(=O)[C@H](CCCNC(=N)N)NC(=O)[C@@H](N)CCCNC(=N)N)C(C)C)C(C)C)C(C)C)C(=O)N[C@@H](CCC(=O)O)C(=O)N[C@@H](Cc1ccccc1)C(=O)O [Corticotropin_(17-40)] (H-RRPVKVYPNVAENESAEAFPLEF-OH; N-terminus and C-terminus assumed) | No response | 24.2 fold over basal |  | 7.41 µM
